# Tests used:
# [1] = target: PI3K-δ (PI3K(p1108/p857) (h)) (Homo sapiens, UniProt O00329); test: Evaluation of inhibitory activity against PI3K-δ (HTRF kinase assay); type: biochemical; conditions: for inhibition at 0.01 µM: compound concentration 0.01 μM, read-out: EXP_VALUE(% Inhibition) PI3K-δ 0.01 μM; for inhibition at 0.1 µM: compound concentration 0.1 μM, read-out: EXP_VALUE(% Inhibition) PI3K-δ 0.1 μM
# Summary of the method: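 HTRF read-out (665/620 nm ratio ×10000) used Eu-labelled anti-GST, GST-tagged GRP1 PH domain and streptavidin-allophycocyanin after EDTA/PIP3 stop.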
# DNA-PK(h) = DNA-PK(h) (Homo sapiens, UniProt P78527); test: Evaluation of inhibitory activity against DNA-PK (HTRF kinase assay, GST-cMyc-p53 substrate); type: biochemical; conditions: for inhibition at 0.01 µM: compound concentration 0.01 μM, read-out: EXP_VALUE(% Inhibition) DNA-PK(h) 0.01 μM; for inhibition at 0.1 µM: compound concentration 0.1 μM, read-out: EXP_VALUE(% Inhibition) DNA-PK(h) 0.1 μM
# Summary of the method: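 Human DNA-PK with 50 μM GST-cMyc-p53 substrate; reaction started with Mg/ATP, run 30 min at room temperature, stopped with EDTA. Phospho-Ser15 p53 detected by HTRF (Eu anti-phospho-Ser15, d2 anti-GST), signal = 10000×(Em 665/Em 620).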
# PI3K-δ (PI3K(p1108/p857) (h)), sequence (O00329 whole entry, the tested form may be a part): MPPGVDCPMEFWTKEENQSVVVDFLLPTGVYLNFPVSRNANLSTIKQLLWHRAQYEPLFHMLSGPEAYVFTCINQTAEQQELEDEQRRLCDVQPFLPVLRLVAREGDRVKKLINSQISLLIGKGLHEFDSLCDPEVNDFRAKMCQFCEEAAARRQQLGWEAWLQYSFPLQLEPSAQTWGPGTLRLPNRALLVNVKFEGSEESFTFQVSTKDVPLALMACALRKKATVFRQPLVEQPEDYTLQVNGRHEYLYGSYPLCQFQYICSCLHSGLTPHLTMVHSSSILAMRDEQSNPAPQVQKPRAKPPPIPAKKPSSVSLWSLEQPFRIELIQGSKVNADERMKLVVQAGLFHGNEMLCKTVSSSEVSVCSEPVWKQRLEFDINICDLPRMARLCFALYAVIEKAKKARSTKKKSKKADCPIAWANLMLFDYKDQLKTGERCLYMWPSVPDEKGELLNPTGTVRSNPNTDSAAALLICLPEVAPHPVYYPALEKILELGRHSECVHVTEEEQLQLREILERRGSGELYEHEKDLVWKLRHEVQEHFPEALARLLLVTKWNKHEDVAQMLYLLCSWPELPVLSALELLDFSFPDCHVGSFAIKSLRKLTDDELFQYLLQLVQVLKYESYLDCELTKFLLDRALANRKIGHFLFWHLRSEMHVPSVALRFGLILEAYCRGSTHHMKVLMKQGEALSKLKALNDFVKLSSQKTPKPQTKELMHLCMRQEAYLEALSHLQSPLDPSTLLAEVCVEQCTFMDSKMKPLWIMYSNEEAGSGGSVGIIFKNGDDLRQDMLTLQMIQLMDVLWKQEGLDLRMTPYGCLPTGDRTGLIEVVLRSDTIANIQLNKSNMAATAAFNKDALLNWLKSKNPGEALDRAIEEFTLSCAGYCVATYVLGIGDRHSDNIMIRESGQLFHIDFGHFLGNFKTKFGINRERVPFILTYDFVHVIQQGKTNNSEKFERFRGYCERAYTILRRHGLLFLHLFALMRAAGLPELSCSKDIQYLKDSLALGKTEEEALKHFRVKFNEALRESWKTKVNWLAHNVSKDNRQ
# PI3K-δ (PI3K(p1108/p857) (h)), sequence (P27986 whole entry partner, the tested form may be a part): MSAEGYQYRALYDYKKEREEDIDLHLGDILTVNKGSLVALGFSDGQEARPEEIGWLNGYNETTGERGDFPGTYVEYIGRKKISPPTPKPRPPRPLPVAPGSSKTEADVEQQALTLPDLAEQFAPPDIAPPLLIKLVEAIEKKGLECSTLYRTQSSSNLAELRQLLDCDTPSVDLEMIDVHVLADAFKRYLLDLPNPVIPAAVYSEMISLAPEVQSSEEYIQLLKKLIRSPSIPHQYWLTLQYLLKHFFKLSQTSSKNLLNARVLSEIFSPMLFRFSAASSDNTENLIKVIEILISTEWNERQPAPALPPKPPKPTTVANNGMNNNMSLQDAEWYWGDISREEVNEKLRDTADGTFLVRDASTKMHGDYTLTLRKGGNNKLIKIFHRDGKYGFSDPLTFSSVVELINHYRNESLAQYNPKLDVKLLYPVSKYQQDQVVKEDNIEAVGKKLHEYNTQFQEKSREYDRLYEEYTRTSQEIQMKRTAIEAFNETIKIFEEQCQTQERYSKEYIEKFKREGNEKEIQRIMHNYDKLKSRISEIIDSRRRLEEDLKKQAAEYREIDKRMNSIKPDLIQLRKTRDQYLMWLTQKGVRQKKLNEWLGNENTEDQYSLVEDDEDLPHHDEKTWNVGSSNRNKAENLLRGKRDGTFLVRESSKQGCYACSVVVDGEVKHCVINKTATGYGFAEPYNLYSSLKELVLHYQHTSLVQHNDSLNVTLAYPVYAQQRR
SMILES,inhibition at 0.01 µM [1],inhibition at 0.01 µM (DNA-PK(h)),inhibition at 0.1 µM [1],inhibition at 0.1 µM (DNA-PK(h))
"Cc1cc(-c2cccc3c(Cl)c([C@H](C)Nc4ncnc5[nH]ccc(=O)c45)n(-c4ccccc4)c(=O)c23)cnc1O [Example 58, (S)-4-((1-(4-chloro-8-(6-hydroxy-5-methylpyridin-3-yl)-1-oxo-2-phenyl-1,2-dihydroisoquinolin-3-yl)ethyl)amino)pyrido[2,3-d]pyrimidin-5(8H)-one]",95%,87%,–,–
"C[C@H](Nc1ncnc2[nH]ccc(=O)c12)c1c(Cl)c2cccc(-c3cncnc3C3CCCC3)c2c(=O)n1-c1ccccc1 [Example 59, (S)-4-((1-(4-chloro-8-(4-cyclopentylpyrimidin-5-yl)-1-oxo-2-phenyl-1,2-dihydroisoquinolin-3-yl)ethyl)amino)pyrido[2,3-d]pyrimidin-5(8H)-one]",70%,32%,–,–
"C[C@H](Nc1ncnc2[nH]ccc(=O)c12)c1c(Cl)c2cccc(-c3ccc4c(c3)OCO4)c2c(=O)n1-c1ccccc1 [Example 60, (S)-4-((1-(8-(benzo[d][1,3]dioxol-5-yl)-4-chloro-1-oxo-2-phenyl-1,2-dihydroisoquinolin-3-yl)ethyl)amino)pyrido[2,3-d]pyrimidin-5(8H)-one]",94%,74%,–,–
"COc1ncc(-c2cccc3c(Cl)c([C@H](C)Nc4ncnc5[nH]ccc(=O)c45)n(-c4ccccc4)c(=O)c23)cc1[N+](=O)[O-] [Example 61, (S)-4-((1-(4-chloro-8-(6-methoxy-5-nitropyridin-3-yl)-1-oxo-2-phenyl-1,2-dihydroisoquinolin-3-yl)ethyl)amino)pyrido[2,3-d]pyrimidin-5(8H)-one]",89%,67%,–,–
"C[C@H](Nc1ncnc2[nH]ccc(=O)c12)c1c(Cl)c2cccc(-c3ccccc3)c2c(=O)n1-c1ccccc1 [Example 62, (S)-4-((1-(4-chloro-1-oxo-2,8-diphenyl-1,2-dihydroisoquinolin-3-yl)ethyl)amino)pyrido[2,3-d]pyrimidin-5(8H)-one]",99%,54%,109%,89%
"C[C@H](Nc1ncnc2[nH]ccc(=O)c12)c1c(Cl)c2cccc(-c3ccc(F)cc3)c2c(=O)n1-c1ccccc1 [Example 63, (S)-4-((1-(4-chloro-8-(4-fluorophenyl)-1-oxo-2-phenyl-1,2-dihydroisoquinolin-3-yl)ethyl)amino)pyrido[2,3-d]pyrimidin-5(8H)-one]",95%,44%,96%,84%
"COc1ccc(-c2cccc3c(Cl)c([C@H](C)Nc4ncnc5[nH]ccc(=O)c45)n(-c4ccccc4)c(=O)c23)cc1 [Example 64, (S)-4-((1-(4-chloro-8-(4-methoxyphenyl)-1-oxo-2-phenyl-1,2-dihydroisoquinolin-3-yl)ethyl)amino)pyrido[2,3-d]pyrimidin-5(8H)-one]",93%,51%,101%,86%

# The next lines start with the values.
inhibition at 0.01 µM [1],inhibition at 0.01 µM (DNA-PK(h)),inhibition at 0.1 µM [1],inhibition at 0.1 µM (DNA-PK(h)),SMILES
89%,58%,110%,90%,"C[C@H](Nc1ncnc2[nH]ccc(=O)c12)c1c(C2CC2)c2cccc(Cl)c2c(=O)n1-c1ccccc1 [Example 65, (S)-4-((1-(8-chloro-4-cyclopropyl-1-oxo-2-phenyl-1,2-dihydroisoquinolin-3-yl)ethyl)amino)pyrido[2,3-d]pyrimidin-5(8H)-one]"
72%,59%,103%,92%,"C[C@H](Nc1ncnc2[nH]ccc(=O)c12)c1c(Cl)c2cccc(C3CC3)c2c(=O)n1-c1ccccc1 [Example 66, (S)-4-((1-(4-chloro-8-cyclopropyl-1-oxo-2-phenyl-1,2-dihydroisoquinolin-3-yl)ethyl)amino)pyrido[2,3-d]pyrimidin-5(8H)-one]"
82%,56%,92%,86%,"Cc1cc(C#N)ccc1-c1cccc2c(Cl)c([C@H](C)Nc3ncnc4[nH]ccc(=O)c34)n(-c3ccccc3)c(=O)c12 [Example 67, (S)-4-(4-chloro-1-oxo-3-(1-((5-oxo-5,8-dihydropyrido[2,3-d]pyrimidin-4-yl)amino)ethyl)-2-phenyl-1,2-dihydroisoquinolin-8-yl)-3-methylbenzonitrile]"
3.3%,3%,14.5%,2.7%,"C[C@H](Nc1ncnc2[nH]ccc(=O)c12)c1c(Cl)c2cccc(-c3cnc(Cl)c4ccccc34)c2c(=O)n1-c1ccccc1 [Example 69, (S)-1,4′-dichloro-3′-(1-((5-oxo-5,8-dihydropyrido[2,3-d]pyrimidin-4-yl)amino)ethyl)-2′-phenyl-(4,8′-biisoquinolin)-1′(2′H)-one]"
10.2%,-1.2%,29.9%,23.6%,"C[C@H](Nc1ncnc2[nH]ccc(=O)c12)c1c(Cl)c2cccc(/C=C/c3ccccc3)c2c(=O)n1-c1ccccc1 [Example 70, (S,E)-4-((1-(4-chloro-1-oxo-2-phenyl-8-styryl-1,2-dihydroisoquinolin-3-yl)ethyl)amino)pyrido[2,3-d]pyrimidin-5(8H)-one]"
17%,16%,44%,41%,"C[C@H](Nc1ncnc2[nH]ccc(=O)c12)c1c(Cl)c2cccc(-c3ccc(Cl)c(Cl)c3)c2c(=O)n1-c1ccccc1 [Example 71, (S)-4-((1-(4-chloro-8-(3,4-dichlorophenyl)-1-oxo-2-phenyl-1,2-dihydroisoquinolin-3-yl)ethyl)amino)pyrido[2,3-d]pyrimidin-5(8H)-one]"
99%,58%,112%,96%,"C[C@H](Nc1ncnc2[nH]ccc(=O)c12)c1c(Cl)c2cccc(-c3ccc(N(C)C)cc3)c2c(=O)n1-c1ccccc1 [Example 72, (S)-4-((1-(4-chloro-8-(4-(dimethylamino)phenyl)-1-oxo-2-phenyl-1,2-dihydroisoquinolin-3-yl)ethyl)amino)pyrido[2,3-d]pyrimidin-5(8H)-one]"
72%,53%,86%,92%,"C[C@H](Nc1ncnc2[nH]ccc(=O)c12)c1c(Cl)c2cccc(-c3ccc4[nH]ccc4c3)c2c(=O)n1-c1ccccc1 [Example 73, (S)-4-((1-(4-chloro-8-(1H-indol-5-yl)-1-oxo-2-phenyl-1,2-dihydroisoquinolin-3-yl)ethyl)amino)pyrido[2,3-d]pyrimidin-5(8H)-one]"
65%,54%,88%,90%,"Cc1c[nH]c2ccc(-c3cccc4c(Cl)c([C@H](C)Nc5ncnc6[nH]ccc(=O)c56)n(-c5ccccc5)c(=O)c34)cc12 [Example 74, (S)-4-((1-(4-chloro-8-(3-methyl-1H-indol-5-yl)-1-oxo-2-phenyl-1,2-dihydroisoquinolin-3-yl)ethyl)amino)pyrido[2,3-d]pyrimidin-5(8H)-one]"

# Reference: patent publication US20230072683A1, “PYRIDO-PYRIMIDIN DERIVATIVES AND PHARMACEUTICAL COMPOSITION, FOR USE IN PREVENTING OR TREATING PI3 KINASE RELATED DISEASES, COMPRISING SAME AS ACTIVE INGREDIENT” (BORYUNG PHARMACEUTICAL CO., LTD, priority 2019, published 2023)
